What all share (type): functional
What all share (settings): route subcutaneous

The subject of experiment [1] is Rattus norvegicus. Briefly: Anti-inflammatory activity in Rattus norvegicus albino (rat) assessed as reduction in carrageenan-induced paw volume at 5 mg/kg, sc pretreated 2 hr before carrageenan challenge measured after 1 hr by plethysmometer (reference value: 1.95 +/- 0.03 to 2 ml).
Experiment [2] concerns Rattus norvegicus. Briefly: Anti-inflammatory activity in Rattus norvegicus albino (rat) assessed as reduction in carrageenan-induced paw volume at 5 mg/kg, sc pretreated 1 hr before carrageenan challenge measured after 1 hr by plethysmometer (reference value: 1.95 +/- 0.03 to 2 ml).
The test system of experiment [3] is Rattus norvegicus. The experiment can be described thus: Anti-inflammatory activity in Rattus norvegicus albino (rat) assessed as reduction in carrageenan-induced paw volume at 5 mg/kg, sc pretreated 4 hr before carrageenan challenge measured after 1 hr by plethysmometer (reference value: 1.95 +/- 0.03 to 2 ml). On the technique in general: The carrageenan paw model is a standard test of acute inflammation.

In experiment [4] the test system is Rattus norvegicus. Briefly: Anti-inflammatory activity in Rattus norvegicus albino (rat) assessed as reduction in carrageenan-induced paw volume at 5 mg/kg, sc pretreated 3 hr before carrageenan challenge measured after 1 hr by plethysmometer (reference value: 1.95 +/- 0.03 to 2 ml).

For `O=c1ccc(-c2nc3ccccc3nc2-c2ccccc2)n[nH]1`, the Activity in the experiment on Rattus norvegicus [1] was 1.37 mL; with Rattus norvegicus [2] it was 1.97 mL; in the experiment on Rattus norvegicus [3], 0.38 mL; in the experiment on Rattus norvegicus [4] it was 1 mL.

Regarding `O=c1ccc(-c2nc3ccccc3nc2-c2ccc(Cl)cc2)n[nH]1`, the Activity in the experiment on Rattus norvegicus [1] amounted to 0.95 mL; with Rattus norvegicus [2] it was 1.48 mL; in the experiment with Rattus norvegicus [3], 0.03 mL; with Rattus norvegicus [4] it was 0.55 mL.

As for `COc1ccc(-c2nc3ccccc3nc2-c2ccc(=O)[nH]n2)cc1`, the Activity in the experiment with Rattus norvegicus [1] was found to be 1.5 mL; in the experiment on Rattus norvegicus [2], 1.55 mL; in the experiment on Rattus norvegicus [3], 1.27 mL; in the experiment with Rattus norvegicus [4] it was 1.38 mL.

In the case of `O=c1ccc(C2Nc3ccccc3NC2c2ccccc2)n[nH]1` (stereo not drawn), the Activity in the experiment with Rattus norvegicus [1] amounted to 2.02 mL; with Rattus norvegicus [2] it was 2 mL; with Rattus norvegicus [3], 2.07 mL; in the experiment with Rattus norvegicus [4] it was 2 mL.

Regarding `O=c1ccc(C2Nc3ccccc3NC2c2ccc(Cl)cc2)n[nH]1` (stereo not drawn), the Activity in the experiment with Rattus norvegicus [1] turned out to be 1.93 mL; with Rattus norvegicus [2] it was 1.93 mL; in the experiment on Rattus norvegicus [3], 2.12 mL; in the experiment on Rattus norvegicus [4] it was 2 mL.

`COc1ccc(C2Nc3ccccc3NC2c2ccc(=O)[nH]n2)cc1` (stereo not drawn): the Activity with Rattus norvegicus [1] stood at 1.42 mL; with Rattus norvegicus [2], 1.58 mL; in the experiment with Rattus norvegicus [3] it was 1.32 mL; in the experiment with Rattus norvegicus [4] it was 1.38 mL.

Turning to `O=C(O)Cc1ccccc1Nc1c(Cl)cccc1Cl` [DICLOFENAC], the Activity with Rattus norvegicus [1] is 0.57 mL; with Rattus norvegicus [2] it was 0.92 mL; with Rattus norvegicus [3], 0.03 mL; with Rattus norvegicus [4] it was 0.3 mL.

The values above are taken from ChEMBL document CHEMBL3044725, “Structure-based molecular design, synthesis, and in vivo anti-inflammatory activity of pyridazinone derivatives as nonclassic COX-2 inhibitors” (2010).
